ChEMBL document CHEMBL1671777, “X-ray crystal structure and binding mode analysis of human S-adenosylhomocysteine hydrolase complexed with novel mechanism-based inhibitors, haloneplanocin A analogues” (J Med Chem, 2011)

Target: Adenosylhomocysteinase (Homo sapiens, UniProt P23526)
Test: Inhibition of human placental AdoHcy hydrolase expressed in Escherichia coli JM109

Adenosylhomocysteinase, sequence (P23526 whole entry): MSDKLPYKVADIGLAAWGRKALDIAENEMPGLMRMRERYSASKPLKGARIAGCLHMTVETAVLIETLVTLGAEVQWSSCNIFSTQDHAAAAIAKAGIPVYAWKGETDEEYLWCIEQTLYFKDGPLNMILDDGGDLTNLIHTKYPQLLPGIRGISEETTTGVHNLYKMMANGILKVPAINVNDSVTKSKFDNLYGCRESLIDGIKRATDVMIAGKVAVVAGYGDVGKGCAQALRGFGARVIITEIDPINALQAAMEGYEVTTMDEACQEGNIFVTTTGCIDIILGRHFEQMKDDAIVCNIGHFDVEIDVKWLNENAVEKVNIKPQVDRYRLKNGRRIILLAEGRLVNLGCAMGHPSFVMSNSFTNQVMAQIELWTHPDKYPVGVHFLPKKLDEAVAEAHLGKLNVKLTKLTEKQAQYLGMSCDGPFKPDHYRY

IC50	SMILES
5.83 µM	Nc1ncnc2c1ncn2[C@@H]1C=C[C@@H](O)[C@H]1O
> 1000 µM	Nc1ncnc2c1ncn2[C@@H]1C(Br)=C[C@@H](O)[C@H]1O
> 1000 µM	Nc1ncnc2c1ncn2[C@@H]1C(Cl)=C[C@@H](O)[C@H]1O
60.2 µM	Nc1ncnc2c1ncn2[C@@H]1C(Br)=C(CO)[C@@H](O)[C@H]1O
7.67 µM	Nc1ncnc2c1ncn2[C@@H]1C(F)=C[C@@H](O)[C@H]1O
36.5 µM	Nc1ncnc2c1ncn2[C@@H]1C(Cl)=C(CO)[C@@H](O)[C@H]1O
> 1000 µM	Nc1ncnc2c1ncn2[C@@H]1C(I)=C(CO)[C@@H](O)[C@H]1O
> 1000 µM	Nc1ncnc2c1ncn2[C@@H]1C(I)=C[C@@H](O)[C@H]1O
0.87 µM	Nc1ncnc2c1ncn2[C@@H]1C=C(CO)[C@@H](O)[C@H]1O [NEOPLANOCIN A]
